Assays:
[1] = biological target: alpha-amylase; design: method as in PMID 34064448, PMID 32525781, PMID 33272713, PMID 35832461, PMID 28495082; conditions: Figure 1 design strategy; cited from earlier work
[2] = test system: α-glucosidase; test: α-glucosidase inhibitory activity, spectrophotometric p-nitrophenyl-α-D-glucopyranoside method; assay type: biochemical; conditions: for IC50: mean ± SEM of three parallel measurements, concentration range 50–100–200–400 μM, read-out: antidiabetic inhibition activity IC50 α-lucosidase
Procedure: Specifically, 50 μL of phosphate buffer (10 mM, pH 6.9), 25 μL of p-nitrophenyl-α-D-glucopyranoside in phosphate buffer (10 mM, pH 6.9), 10 μL of sample solution, and 25 μL of α-glucosidase (0.1 U/mL) in phosphate buffer (10 mM, pH 6.0) were combined in a 96-well microplate. After 20 min of incubation at 37 °C, 90 μL of Na2CO3 (100 mM) was added to each well to halt the enzymatic reaction. The absorbance was measured at 400 nm by using a 96-well microplate reader.
(§1) All biological activity data were taken in three parallel measurements for four different concentrations of each synthesis sample. The results of the biological activity analyses are presented as the IC50 values.

[3] = test system: nonsmall lung cancer (A549) cells; test: Cytotoxic activity, MTT cell viability assay, A549; assay type: cell-based; conditions: Homo sapiens, A549, 24 h
Procedure: (§2) In this research, the nonsmall lung cancer (A549) and bronchial epithelial normal (BEAS-2B) cells were used for cytotoxicity experiments. All of the cells were cultured in Dulbecco’s Modified Eagle Medium (Gibco, USA) cell medium containing 10% fetal calf serum (FBS; Gibco, USA) and 1% penicillin/streptomycin (Gibco, USA) in an incubator at 37 °C and 5% CO2.[49],[50]
(§3) In a 96-well cell culture plate, cells were seeded at a density of 6 × 10^4 cells/mL and observed to be cultured for 24 h. The cells must have 70% confluence before chemical exposure. After 70% confluency incubation, the cells were treated with different concentrations of compounds for 24 h. All chemicals were dissolved in DMSO. […] The amount of DMSO contained in the chemical at the highest concentration was used as a negative control.
(§4) Cell viability was determined by 3-[4,5-dimethylthiazol-2-yl]-2,5-diphenyltetrazolium bromide (MTT) assay. This method is specifically used to evaluate live cells. The succinate dehydrogenase system of active mitochondria reduces the tetrazolium salt MTT to formazan.[51] For the MTT assay, MTT solution […] was added into the cells (200 μL/well) and incubated for 1 h at 37 °C. Absorbance was measured at 570 nm using an Epoch microplate spectrophotometer (BioTek Instruments, Winooska, VT).[52]

[4] = biological target: α-amylase; test: α-amylase inhibitory activity, spectrophotometric starch/Lugol method; assay type: biochemical; conditions: mean ± SEM of three parallel measurements; concentration range 50–100–200–400 μM; read-out: antidiabetic inhibition activity IC50 α-amylase
Procedure: Briefly, 25 μL of the sample solution at various concentrations was mixed with 50 μL of an α-amylase solution (0.1 U/mL) in a phosphate buffer (20 mM, pH 6.9, prepared with 6 mM NaCl) in a 96-well microplate. This mixture was preincubated at 37 °C for 10 min. Following the preincubation, 50 μL of a starch solution (0.05%) was added, and the reaction mixture was incubated for another 10 min at 37 °C. The reaction was then terminated by adding 25 μL of HCl (0.1 M), followed by the addition of 100 μL of Lugol’s solution for monitoring.
as §1

[5] = Cytotoxic activity, MTT cell viability assay, BEAS-2B; assay type: cell-based; conditions: human, BEAS-2B normal bronchial epithelial cells
Procedure: as §2, §3, §4

[6] = test system: bronchial epithelial normal (BEAS-2B) cells; test: as above; assay type: cell-based; conditions: at the determined IC50 values
Procedure: as §2, §3, §4

Structure (SMILES)	IC50 [1]	α-glucosidase inhibitory effect compared with acarbose [2]	IC50 [2]	IC50 [3]	IC50 [4]	IC50 at 24 h [5]	toxic effect on healthy BEAS-2B cells [6]
O=C(/C=C/c1ccccc1)c1ccccc1 [trans-chalcone]	96.4 µM	–	–	–	–	–	–
O=C(/C=C/c1ccc(C(F)(F)F)cc1F)c1ccc(N2CCCC2)cc1 [Compound 12, (E)-3-(2-fluoro-4-(trifluoromethyl)phenyl)-1-(4-(pyrrolidin-1-yl)phenyl)prop-2-en-1-one]	–	better inhibitory effect	81.8 ± 0.85 µM	> 100 µM	80.11 ± 0.49 µM	> 100 µM	–
O=C(/C=C/c1ccccc1C(F)(F)F)c1ccc(N2CCCC2)cc1 [Compound 5, (E)-1-(4-(pyrrolidin-1-yl)phenyl)-3-(2-(trifluoromethyl)phenyl)prop-2-en-1-one]	–	–	173 ± 3.45 µM	82.2 µM	91.71 ± 0.28 µM	97.7 µM	no toxic effects
O=C(/C=C/c1cccc(F)c1)c1ccc(N2CCCC2)cc1 [Compound 3, (E)-3-(3-fluorophenyl)-1-(4-(pyrrolidin-1-yl)phenyl)prop-2-en-1-one]	–	better inhibitory effect	–	> 100 µM	–	> 100 µM	–
O=C(/C=C/c1ccc(OC(F)(F)F)cc1)c1ccc(N2CCCC2)cc1 [Compound 9, (E)-1-(4-(pyrrolidin-1-yl)phenyl)-3-(4-(trifluoromethoxy)phenyl)prop-2-en-1-one]	–	better inhibitory effect	61.3 ± 2.48 µM	> 100 µM	39.97 ± 0.26 µM	> 100 µM	–
O=C(/C=C/c1cccc(C(F)(F)F)c1F)c1ccc(N2CCCC2)cc1 [Compound 11, (E)-3-(2-fluoro-3-(trifluoromethyl)phenyl)-1-(4-(pyrrolidin-1-yl)phenyl)prop-2-en-1-one]	–	–	131 ± 3.02 µM	> 100 µM	–	> 100 µM	–
O=C(/C=C/c1ccc(F)c(C(F)(F)F)c1)c1ccc(N2CCCC2)cc1 [Compound 13, (E)-3-(4-fluoro-3-(trifluoromethyl)phenyl)-1-(4-(pyrrolidin-1-yl)phenyl)prop-2-en-1-one]	–	–	261.5 ± 1.69 µM	> 100 µM	83.8 ± 0.01 µM	> 100 µM	–
O=C(/C=C/c1cccc(C(F)(F)F)c1)c1ccc(N2CCCC2)cc1 [Compound 6, (E)-1-(4-(pyrrolidin-1-yl)phenyl)-3-(3-(trifluoromethyl)phenyl)prop-2-en-1-one]	–	better inhibitory effect	54.1 ± 2.87 µM	> 100 µM	83.78 ± 0.38 µM	> 100 µM	–
O=C(/C=C/c1cc(C(F)(F)F)cc(C(F)(F)F)c1)c1ccc(N2CCCC2)cc1 [Compound 10, (E)-3-(3,5-bis(trifluoromethyl)phenyl)-1-(4-(pyrrolidin-1-yl)phenyl)prop-2-en-1-one]	–	better inhibitory effect	44.2 ± 2.42 µM	> 100 µM	39.68 ± 0.27 µM	> 100 µM	–
O=C(/C=C/c1ccccc1F)c1ccc(N2CCCC2)cc1 [Compound 2, (E)-3-(2-fluorophenyl)-1-(4-(pyrrolidin-1-yl)phenyl)prop-2-en-1-one]	–	–	189 ± 1.94 µM	> 100 µM	51.96 ± 0.12 µM	> 100 µM	–
O=C(/C=C/c1cccc(OC(F)(F)F)c1)c1ccc(N2CCCC2)cc1 [Compound 8, (E)-1-(4-(pyrrolidin-1-yl)phenyl)-3-(3-(trifluoromethoxy)phenyl)prop-2-en-1-one]	–	–	147.5 ± 0.9 µM	60 µM	–	> 100 µM	no toxic effects
O=C(/C=C/c1ccc(F)cc1)c1ccc(N2CCCC2)cc1 [Compound 4, (E)-3-(4-fluorophenyl)-1-(4-(pyrrolidin-1-yl)phenyl)prop-2-en-1-one]	–	better inhibitory effect	58.9 ± 3.26 µM	> 100 µM	30.63 ± 0.25 µM	> 100 µM	–
O=C(/C=C/c1ccccc1)c1ccc(N2CCCC2)cc1 [Compound 1, (E)-3-Phenyl-1-(4-(pyrrolidin-1-yl)phenyl)prop-2-en-1-one]	–	better inhibitory effect	50.2 ± 2.32 µM	> 100 µM	–	> 100 µM	–
O=C(/C=C/c1ccc(C(F)(F)F)cc1)c1ccc(N2CCCC2)cc1 [Compound 7, (E)-1-(4-(pyrrolidin-1-yl)phenyl)-3-(4-(trifluoromethyl)phenyl)prop-2-en-1-one]	–	better inhibitory effect	46.5 ± 2.16 µM	> 100 µM	38.2 ± 0.83 µM	> 100 µM	–

Reference: paper PMC11904715, “Discovery of Novel Pyrrolidine-Based Chalcones as Dual Inhibitors of α-Amylase and α-Glucosidase: Synthesis, Molecular Docking, ADMET Profiles, and Pharmacological Screening” (ACS Omega, 2025)
